22 compounds from US20180099931A1 (AbbVie S.à.r.l., priority 2016, published 2018) can be followed below.

The experiment concerns the target T1, F508delCFTR (Homo sapiens, UniProt P13569, DEL508-508).
T1 construct: expressed in transfected cells; host or cells: CFBE41o- human lung-derived epithelial cells (CFBE4lo-F508delCFTR-HRP), doxycycline-inducible
The experiment is described as follows: Cell Surface Expression-Horse Radish Peroxidase (CSE-HRP) Assay.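 As to Maximum % activity (with co-corrector): co-corrector and positive control are both the same reference corrector at 2 µM.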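 As to Maximum % activity (without co-corrector): percent of the 2 µM on-plate positive control corrector response above DMSO.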 Format: cell-based. The conditions noted are these: CSE-HRP; for Maximum % activity (with co-corrector): with co-corrector (2 μM); for Maximum % activity (with co-corrector) / Emax: maximum at any tested concentration, normalized to on-plate positive control; for Emax: without co-corrector, read-out: Maximum % activity (without co-corrector).

[1] abbreviates: test compound without co-corrector, read-out: EC50 (without co-corrector).
Where [2] appears, read: with co-corrector (2 μM of 3-[(2R,4R)-4-({[1-(2,2-difluoro-1,3-benzodioxol-5-yl)cyclopropyl]carbonyl}amino)-7-methoxy-3,4-dihydro-2H-chromen-2-yl]benzoic acid), read-out: EC50 (with co-corrector).

Where two headings read alike, the source gives them in different places. A value given as a limit tells only on which side of the number the result lay.

T1 sequence (P13569 with tags, fused parts or gaps DEL508-508): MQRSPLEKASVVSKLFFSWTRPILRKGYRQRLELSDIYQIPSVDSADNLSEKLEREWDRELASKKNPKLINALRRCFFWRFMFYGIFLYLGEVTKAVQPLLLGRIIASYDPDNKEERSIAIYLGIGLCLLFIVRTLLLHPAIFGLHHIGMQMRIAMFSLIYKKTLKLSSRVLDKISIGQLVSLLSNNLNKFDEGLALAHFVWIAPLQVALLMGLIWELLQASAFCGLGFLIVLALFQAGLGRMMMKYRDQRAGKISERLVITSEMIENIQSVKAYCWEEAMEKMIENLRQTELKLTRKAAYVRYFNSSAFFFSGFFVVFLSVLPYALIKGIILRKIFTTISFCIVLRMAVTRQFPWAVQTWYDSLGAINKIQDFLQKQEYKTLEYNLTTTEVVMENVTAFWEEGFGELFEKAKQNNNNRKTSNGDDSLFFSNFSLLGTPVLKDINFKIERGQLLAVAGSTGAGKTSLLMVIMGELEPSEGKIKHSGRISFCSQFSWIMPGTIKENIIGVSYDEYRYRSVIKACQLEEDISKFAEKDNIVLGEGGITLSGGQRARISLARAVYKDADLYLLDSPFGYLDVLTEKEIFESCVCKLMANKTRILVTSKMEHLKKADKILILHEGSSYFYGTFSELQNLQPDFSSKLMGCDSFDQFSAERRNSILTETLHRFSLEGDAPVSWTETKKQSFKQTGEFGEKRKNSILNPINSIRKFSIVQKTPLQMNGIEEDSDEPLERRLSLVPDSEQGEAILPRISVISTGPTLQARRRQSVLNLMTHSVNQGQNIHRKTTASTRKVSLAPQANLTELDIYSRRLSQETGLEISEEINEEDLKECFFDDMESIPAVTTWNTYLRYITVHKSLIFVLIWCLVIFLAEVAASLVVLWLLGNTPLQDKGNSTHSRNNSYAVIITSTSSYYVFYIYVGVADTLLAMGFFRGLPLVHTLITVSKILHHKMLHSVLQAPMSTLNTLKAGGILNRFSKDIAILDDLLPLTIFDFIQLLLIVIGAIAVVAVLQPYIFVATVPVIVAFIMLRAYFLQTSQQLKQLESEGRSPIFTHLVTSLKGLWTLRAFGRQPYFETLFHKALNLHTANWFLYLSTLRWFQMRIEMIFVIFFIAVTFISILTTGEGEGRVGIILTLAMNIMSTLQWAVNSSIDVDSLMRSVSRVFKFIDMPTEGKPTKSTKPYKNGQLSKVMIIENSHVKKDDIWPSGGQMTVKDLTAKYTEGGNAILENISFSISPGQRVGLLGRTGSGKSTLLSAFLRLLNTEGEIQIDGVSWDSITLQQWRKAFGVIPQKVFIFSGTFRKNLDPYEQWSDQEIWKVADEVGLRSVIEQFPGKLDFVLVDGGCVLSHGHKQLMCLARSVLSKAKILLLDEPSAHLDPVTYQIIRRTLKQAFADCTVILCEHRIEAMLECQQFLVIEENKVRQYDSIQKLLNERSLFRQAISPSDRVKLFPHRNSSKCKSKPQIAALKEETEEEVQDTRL

Take `COc1ccc(C(C)(C)C)cc1CN[C@H]1[C@H](C(C)(C)C)[C@@H](C(=O)O)N(C(=O)Cc2ccc(F)cc2)[C@H]1c1ccccc1` [II-181]: the “Maximum % activity (with co-corrector)” value is recorded as “+++ (≥350)” and the Emax was 100 to 200%. Moreover, the EC50 under setting [1] is 1000 to 10000 nM. Besides, the EC50 under setting [2] was in the range of 1000 to 10000 nM.
For the compound `COc1ccc(C(C)(C)C)cc1CN[C@H]1[C@H](C(C)(C)C)[C@@H](C(=O)O)N(C(=O)Cc2cccs2)[C@H]1c1ccccc1` [II-182], the “Maximum % activity (with co-corrector)” value was “+++ (≥350)” and the Emax is > 200%. Further, the EC50 under setting [1] is 1000 to 10000 nM. In addition, the EC50 under setting [2] was < 1000 nM.
As for `COc1ccc(C(C)(C)C)cc1CN[C@H]1[C@H](C(C)(C)C)[C@@H](C(=O)O)N(C(=O)Cc2ccccc2Cl)[C@H]1c1ccccc1` [II-183], the “Maximum % activity (with co-corrector)” value is given as “+++ (≥350)” and the Emax is > 200%. Also, under setting [1], the EC50 was < 1000 nM. For the same compound, under setting [2], the EC50 was < 1000 nM.
`COc1ccc(C(C)(C)C)cc1CN[C@H]1[C@H](C(C)(C)C)[C@@H](C(=O)O)N(C(=O)Cc2cccnc2)[C@H]1c1ccccc1` [II-184]: the “Maximum % activity (with co-corrector)” value is recorded as “+++ (≥350)” and the Emax is 100 to 200%. The EC50 under setting [1] lay within 1000 to 10000 nM. Moreover, the EC50 under setting [2] lay within 1000 to 10000 nM.
For the compound `COc1ccc(C(C)(C)C)cc1CN[C@H]1[C@H](C(C)(C)C)[C@@H](C(=O)O)N(C(=O)c2coc3ccccc23)[C@H]1c1ccccc1` [II-185], the “Maximum % activity (with co-corrector)” value is on record as “+++ (≥350)” and the Emax was < 100%. Under setting [1], the half-maximal effective concentration (EC50) was < 1000 nM. Also, under setting [2], the EC50 was < 1000 nM.
For `COc1ccc(C(C)(C)C)cc1CN[C@H]1[C@H](C(C)(C)C)[C@@H](C(=O)O)N(C(=O)C2CCCC(C(F)(F)F)C2)[C@H]1c1ccccc1` (stereo partly shown) [II-186], the “Maximum % activity (with co-corrector)” value is recorded as “+++ (≥350)” and the Emax was > 200%. Also, the EC50 under setting [1] was < 1000 nM. The EC50 under setting [2] was < 1000 nM.
In the case of `COc1ccc(C(C)(C)C)cc1CN[C@H]1[C@H](C(C)(C)C)[C@@H](C(=O)O)N(C(=O)CN2CCCC2)[C@H]1c1ccccc1` [II-187], the “Maximum % activity (with co-corrector)” value is “++ (≥150 and <350)”; the Emax is < 100%. In addition, the EC50 under setting [1] lay within 1000 to 10000 nM. Under setting [2], the EC50 lay within 1000 to 10000 nM.
With `COc1ccc(C(C)(C)C)cc1CN[C@H]1[C@H](C(C)(C)C)[C@@H](C(=O)O)N(C(=O)CC2CCC(F)(F)CC2)[C@H]1c1ccccc1` [II-188], the “Maximum % activity (with co-corrector)” value is recorded as “+++ (≥350)” and the Emax is > 200%. Besides, under setting [1], the 50% effective concentration (EC50) was in the range of 1000 to 10000 nM. Besides, under setting [2], the EC50 lay in the range of 1000 to 10000 nM.
Take `COc1ccc(C(C)(C)C)cc1CN[C@H]1[C@H](C(C)(C)C)[C@@H](C(=O)O)N(C(=O)C2(c3ccccn3)CC2)[C@H]1c1ccccc1` [II-189]: the “Maximum % activity (with co-corrector)” value is “+++ (≥350)” and the Emax was > 200%. In addition, the EC50 under setting [1] is 1000 to 10000 nM. Besides, the EC50 under setting [2] lay in the range of 1000 to 10000 nM.
As for `COc1ccc(OC(F)(F)F)cc1CN[C@H]1[C@H](C(C)(C)C)[C@@H](C(=O)O)N(C(=O)C2CCCCC2)[C@H]1c1ccccc1` [II-190], the “Maximum % activity (with co-corrector)” value is reported as “+++ (≥350)” and the Emax is > 200%. Further, the EC50 under setting [1] fell in the range of 1000 to 10000 nM. The half-maximal effective concentration (EC50) under setting [2] is < 1000 nM.
For the compound `COc1ccc(Cc2ccccc2)cc1CN[C@H]1[C@H](C(C)(C)C)[C@@H](C(=O)O)N(C(=O)C2CCCCC2)[C@H]1c1ccccc1` [II-191], the “Maximum % activity (with co-corrector)” value is “+++ (≥350)” and the Emax was > 200%. In addition, the EC50 under setting [1] fell in the range of 1000 to 10000 nM. Besides, the EC50 under setting [2] is < 1000 nM.
In the case of `COc1ccc(C2CCCCC2)cc1CN[C@H]1[C@H](C(C)(C)C)[C@@H](C(=O)O)N(C(=O)C2CCCCC2)[C@H]1c1ccccc1` [II-192], the “Maximum % activity (with co-corrector)” value is reported as “+++ (≥350)” and the Emax is > 200%. Moreover, under setting [1], the 50% effective concentration (EC50) is < 1000 nM. Further, the concentration giving a half-maximal response (EC50) under setting [2] was < 1000 nM.
In the case of `COc1ccc(C2CCCC2)cc1CN[C@H]1[C@H](C(C)(C)C)[C@@H](C(=O)O)N(C(=O)C2CCCCC2)[C@H]1c1ccccc1` [II-193], the “Maximum % activity (with co-corrector)” value is recorded as “+++ (≥350)” and the Emax is > 200%. Moreover, the EC50 under setting [1] is < 1000 nM. Besides, the EC50 under setting [2] is < 1000 nM.
Take `COc1ccc(C2CC3CCC2C3)cc1CN[C@H]1[C@H](C(C)(C)C)[C@@H](C(=O)O)N(C(=O)C2CCCCC2)[C@H]1c1ccccc1` (stereo partly shown) [II-194]: the “Maximum % activity (with co-corrector)” value was “+++ (≥350)” and the Emax is > 200%. The EC50 under setting [1] is < 1000 nM. Besides, the EC50 under setting [2] is < 1000 nM.
For `COc1ccc(C(C)(C)C)cc1CN[C@H]1[C@H](C(C)(C)C)[C@@H](C(=O)O)N(C(=O)Cc2ccc(O)cc2)[C@H]1c1ccccc1` [II-195], the “Maximum % activity (with co-corrector)” value is “+++ (≥350)” and the Emax was > 200%. For the same compound, under setting [1], the EC50 is 1000 to 10000 nM. Moreover, the 50% effective concentration (EC50) under setting [2] lay within 1000 to 10000 nM.
For the compound `COc1ccc(C(C)(C)C)cc1CN[C@H]1[C@H](C(C)(C)C)[C@@H](C(=O)O)N(C(=O)Cc2cccc(O)c2)[C@H]1c1ccccc1` [II-196], the “Maximum % activity (with co-corrector)” value was “+++ (≥350)” and the Emax was > 200%. The EC50 under setting [1] lay in the range of 1000 to 10000 nM. Further, under setting [2], the EC50 was in the range of 1000 to 10000 nM.
Consider `COc1ccc(C(C)(C)C)cc1CN[C@H]1[C@H](C(C)(C)C)[C@@H](C(=O)O)N(C(=O)c2cc(C)nc(C)c2)[C@H]1c1ccccc1` [II-197], for which the “Maximum % activity (with co-corrector)” value was “++ (≥150 and <350)”; the Emax was < 100%. Further, under setting [1], the EC50 is 1000 to 10000 nM. Besides, under setting [2], the EC50 lay within 1000 to 10000 nM.
Regarding `COc1ccc(C(C)(C)C)cc1CN[C@H]1[C@H](C(C)(C)C)[C@@H](C(=O)O)N(C(=O)c2cccnc2C)[C@H]1c1ccccc1` [II-198], the “Maximum % activity (with co-corrector)” value was “++ (≥150 and <350)”; the Emax was < 100%. Also, the EC50 under setting [1] lay within 1000 to 10000 nM. Moreover, under setting [2], the half-maximal effective concentration (EC50) lay within 1000 to 10000 nM.
Turning to `COc1ccc(C(C)(C)C)cc1CN[C@H]1[C@H](C(C)(C)C)[C@@H](C(=O)O)N(C(=O)Cc2cccc(F)c2)[C@H]1c1ccccc1` [II-199], the “Maximum % activity (with co-corrector)” value was “+++ (≥350)” and the Emax was > 200%. In addition, the EC50 under setting [1] was in the range of 1000 to 10000 nM. Further, under setting [2], the EC50 fell in the range of 1000 to 10000 nM.
Take `COc1ccc(C(C)(C)C)cc1CN[C@H]1[C@H](C(C)(C)C)[C@@H](C(=O)O)N(C(=O)Cc2cc(F)cc(F)c2)[C@H]1c1ccccc1` [II-200]: the “Maximum % activity (with co-corrector)” value is “+++ (≥350)” and the Emax was 100 to 200%. Moreover, the EC50 under setting [1] fell in the range of 1000 to 10000 nM. In addition, the EC50 under setting [2] is < 1000 nM.
On to `COc1ccc(C(C)(C)C)cc1CN[C@H]1[C@H](C(C)(C)C)[C@@H](C(=O)O)N(C(=O)Cc2c(F)cccc2F)[C@H]1c1ccccc1` [II-201], for which the “Maximum % activity (with co-corrector)” value is given as “+++ (≥350)” and the Emax is > 200%. In addition, the EC50 under setting [1] was < 1000 nM. For the same compound, the EC50 under setting [2] is < 1000 nM.
`COc1ccc(C(C)(C)C)cc1CN[C@H]1[C@H](C(C)(C)C)[C@@H](C(=O)O)N(C(=O)Cc2cc(F)ccc2F)[C@H]1c1ccccc1` [II-202]: the “Maximum % activity (with co-corrector)” value is listed as “+++ (≥350)” and the Emax was > 200%. Besides, the concentration for a half-maximal effect (EC50) under setting [1] is < 1000 nM. Besides, under setting [2], the EC50 was < 1000 nM.
